In US11400059B2, “Treatment of pain and/or pain related symptoms associated with dysmenorrhea” (ALYRA BIOTECH PTY LTD, priority 2017, dated 2022):

Tests used:
Assay type in all cases: cell-based
[1] = system: HEK293/Null1 and HEK293/Null2; experiment: Antagonist screening on TLR−/NLR− control cell lines stimulated with TNFa; settings: stimulated with TNFa at 10 ng/mL
Procedure: (§1) Toll-Like Receptor (TLR), NOD-Like Receptor (NLR) and C-Type Lectin Receptor (CLR) stimulation were tested by assessing NF-κB activation in HEK293 cells expressing a given TLR, NLR or CLR. The activity of the test articles was tested at one concentration and compared to control ligands. These steps were performed in triplicate. In a 96-well plate (200 μL total volume) containing the appropriate cells (50,000-75,000 cells/well), 20 μL of the test article or the positive control ligand was added to the wells. For the antagonist assay, the test article was incubated with the cells, at 37° C. with 5% CO2, for 30 minutes prior to the addition of the positive control ligand to the wells. The media added to the wells was designed for the detection of NF-κB induced SEAP expression. After a 16-24 hr incubation the optical density (OD) was read at 650 nm on a Molecular Devices SpectraMax 340PC absorbance detector.

Human TLR8 = molecular target: T1, Human TLR8 (Homo sapiens, UniProt Q9NR97); experiment: Human TLR antagonist screening, NF-κB SEAP reporter in HEK293 cells; settings: antagonist mode, test article 1 μM, +CL075 200 ng/ml, No Sample 13, Control− 1
T1 construct: expressed in transfected cells; host or cells: HEK293
T1 sequence (Q9NR97 27-1041): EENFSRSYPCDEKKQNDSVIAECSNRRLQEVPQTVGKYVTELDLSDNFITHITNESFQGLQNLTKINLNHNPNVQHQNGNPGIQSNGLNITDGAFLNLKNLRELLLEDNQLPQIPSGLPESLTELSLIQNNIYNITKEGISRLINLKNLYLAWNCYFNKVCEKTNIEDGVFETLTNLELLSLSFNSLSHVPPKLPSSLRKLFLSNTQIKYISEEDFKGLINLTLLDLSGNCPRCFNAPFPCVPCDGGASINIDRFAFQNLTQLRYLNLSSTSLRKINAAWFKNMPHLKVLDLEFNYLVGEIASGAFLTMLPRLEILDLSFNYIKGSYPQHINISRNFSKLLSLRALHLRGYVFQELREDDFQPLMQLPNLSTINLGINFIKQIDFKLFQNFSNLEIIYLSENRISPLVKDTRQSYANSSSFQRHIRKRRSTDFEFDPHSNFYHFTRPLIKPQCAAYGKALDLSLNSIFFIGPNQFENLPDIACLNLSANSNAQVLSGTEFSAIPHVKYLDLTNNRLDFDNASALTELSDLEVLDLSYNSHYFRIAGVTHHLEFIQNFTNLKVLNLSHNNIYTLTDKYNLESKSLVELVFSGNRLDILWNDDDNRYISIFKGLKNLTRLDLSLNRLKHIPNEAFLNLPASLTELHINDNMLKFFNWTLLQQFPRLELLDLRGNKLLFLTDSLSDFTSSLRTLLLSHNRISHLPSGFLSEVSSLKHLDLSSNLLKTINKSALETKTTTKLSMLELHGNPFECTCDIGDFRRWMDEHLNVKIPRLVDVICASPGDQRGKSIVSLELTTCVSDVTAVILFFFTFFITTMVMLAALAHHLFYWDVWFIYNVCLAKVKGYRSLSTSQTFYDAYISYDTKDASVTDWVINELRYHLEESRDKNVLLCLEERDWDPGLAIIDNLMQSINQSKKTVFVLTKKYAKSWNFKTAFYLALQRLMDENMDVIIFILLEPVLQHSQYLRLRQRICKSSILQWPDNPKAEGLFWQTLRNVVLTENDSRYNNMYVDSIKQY
Procedure: as §1, with “triplicate. hTLR8: […]” for “triplicate.”, “detector. Fold induction (ratio of average induced value to average non-induced value) was determined for each TLR, NOD1, NOD2, Dectin-1a, Dectin-1b.” for “detector.”

hTLR5 = molecular target: T2, hTLR5 (Homo sapiens, UniProt O60602); experiment: as above; settings: antagonist mode, test article 1 μM, +FLA-ST 50 ng/ml, No Sample 34, Control− 1
T2 construct: expressed in transfected cells; host or cells: HEK293
T2 sequence (O60602 21-858): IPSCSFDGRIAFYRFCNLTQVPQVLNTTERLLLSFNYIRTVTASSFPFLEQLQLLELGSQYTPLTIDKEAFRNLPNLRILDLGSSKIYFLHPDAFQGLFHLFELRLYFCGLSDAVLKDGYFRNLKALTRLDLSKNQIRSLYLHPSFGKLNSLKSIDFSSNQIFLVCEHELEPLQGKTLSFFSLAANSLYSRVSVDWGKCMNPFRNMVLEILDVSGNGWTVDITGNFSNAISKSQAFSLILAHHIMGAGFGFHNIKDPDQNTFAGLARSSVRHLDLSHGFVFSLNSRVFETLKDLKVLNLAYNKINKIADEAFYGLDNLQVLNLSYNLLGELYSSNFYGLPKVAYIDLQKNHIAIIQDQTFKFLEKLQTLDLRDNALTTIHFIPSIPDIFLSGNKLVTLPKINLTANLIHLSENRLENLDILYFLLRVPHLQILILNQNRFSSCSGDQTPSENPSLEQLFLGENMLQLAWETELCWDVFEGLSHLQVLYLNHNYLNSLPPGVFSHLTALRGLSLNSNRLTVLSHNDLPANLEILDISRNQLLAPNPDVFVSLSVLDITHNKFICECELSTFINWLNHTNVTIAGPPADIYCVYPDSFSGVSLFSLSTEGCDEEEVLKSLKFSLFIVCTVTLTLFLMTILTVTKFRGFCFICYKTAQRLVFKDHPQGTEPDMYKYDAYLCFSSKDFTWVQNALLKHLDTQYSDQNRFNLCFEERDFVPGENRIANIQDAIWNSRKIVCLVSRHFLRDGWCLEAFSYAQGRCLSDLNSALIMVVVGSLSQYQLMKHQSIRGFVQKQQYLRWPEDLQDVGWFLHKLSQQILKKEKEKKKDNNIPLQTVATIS
Procedure: as §1, with “triplicate. […]” for “triplicate.”, “[…] Fold induction (ratio of average induced value to average non-induced value)” for “After a 16-24 hr incubation the optical density (OD)”, “determined for each TLR, NOD1, NOD2, Dectin-1a, Dectin-1b.” for “read at 650 nm on a Molecular Devices SpectraMax 340PC absorbance detector.”

Human TLR4 = molecular target: T3, Human TLR4 (Homo sapiens, UniProt O00206+Q9Y6Y9); experiment: as above; settings: antagonist mode, test article 1 μM, +LPS-EK 10 ng/mL, No Sample 14, Control− 1
T3 construct: expressed in transfected cells; host or cells: HEK293
T3 sequence (O00206 24-839): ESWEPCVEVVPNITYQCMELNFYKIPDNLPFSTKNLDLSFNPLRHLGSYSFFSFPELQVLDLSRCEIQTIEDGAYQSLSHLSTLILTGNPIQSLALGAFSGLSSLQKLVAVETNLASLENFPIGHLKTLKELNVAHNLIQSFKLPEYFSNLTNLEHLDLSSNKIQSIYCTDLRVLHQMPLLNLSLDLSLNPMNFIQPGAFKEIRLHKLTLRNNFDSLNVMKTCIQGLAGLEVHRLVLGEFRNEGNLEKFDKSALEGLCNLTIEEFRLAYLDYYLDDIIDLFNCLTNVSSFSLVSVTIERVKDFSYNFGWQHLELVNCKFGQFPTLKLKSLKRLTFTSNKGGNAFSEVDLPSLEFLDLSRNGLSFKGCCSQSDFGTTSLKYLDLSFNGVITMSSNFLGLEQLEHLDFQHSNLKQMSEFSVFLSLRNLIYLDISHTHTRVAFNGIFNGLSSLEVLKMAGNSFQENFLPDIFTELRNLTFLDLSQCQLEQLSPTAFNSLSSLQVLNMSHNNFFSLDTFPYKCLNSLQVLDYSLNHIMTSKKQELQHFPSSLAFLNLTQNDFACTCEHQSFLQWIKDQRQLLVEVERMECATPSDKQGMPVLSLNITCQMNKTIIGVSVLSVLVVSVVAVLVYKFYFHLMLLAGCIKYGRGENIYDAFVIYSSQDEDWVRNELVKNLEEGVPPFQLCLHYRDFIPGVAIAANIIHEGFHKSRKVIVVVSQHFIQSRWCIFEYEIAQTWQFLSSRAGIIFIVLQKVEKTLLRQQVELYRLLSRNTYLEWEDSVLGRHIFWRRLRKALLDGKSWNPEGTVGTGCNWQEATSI
T3 sequence (Q9Y6Y9 19-160): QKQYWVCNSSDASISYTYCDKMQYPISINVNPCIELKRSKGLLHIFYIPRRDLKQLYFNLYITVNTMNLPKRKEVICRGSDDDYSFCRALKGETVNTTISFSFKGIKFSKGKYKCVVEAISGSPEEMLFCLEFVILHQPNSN
Procedure: as §1, with “triplicate. hTLR4: […]” for “triplicate.”, “detector. Fold induction (ratio of average induced value to average non-induced value) was determined for each TLR, NOD1, NOD2, Dectin-1a, Dectin-1b.” for “detector.”

| Structure (SMILES) | effect on TLR−/NLR− control cell lines [1] | Fold Induction (Human TLR8) | Fold Induction (Human TLR8; listed as Ami) | Fold Induction (hTLR5) | Fold Induction (hTLR5; listed as Ami) | Fold Induction (Human TLR4) | Fold Induction (Human TLR4; listed as Ami) | Fold Induction (Human TLR8; listed as Nor) |
| --- | --- | --- | --- | --- | --- | --- | --- | --- |
| CN(C)CCC=C1c2ccccc2CCc2ccccc21 [Amitriptyline] | slight inhibitory effect | slight inhibitory effect | 11 | slight inhibitory effect | 33 | slight inhibitory effect | 12 | – |
| CNCCC=C1c2ccccc2CCc2ccccc21 [Nortriptyline] | slight inhibitory effect | slight inhibitory effect | – | 34 | – | 14 | – | 11 |
